According to ChEMBL document CHEMBL1147473, “Synthesis of a bioprobe for elucidation of target molecule of spongean anti-malarial peroxides” (Bioorg Med Chem Lett, 2004):

System: Plasmodium falciparum
Assay: Inhibitory concentration against Plasmodium falciparum
Assay type: functional, organism-based

COC(=O)CC1CCC(CCCCCOC(=O)NCCCC[C@@H]2CCC3NC(=O)NC32)(OC)OO1 (some centres not stated)
IC50: 910 nM

COC(=O)CC1CCC(CCCCCOC(=O)NCCCCNC(=O)OCCOCCOC(=O)NCCCC[C@@H]2CCC3NC(=O)NC32)(OC)OO1 (some centres not stated)
IC50: 570 nM
